Measured values published in article PMC10035370, “Targeting Tumor Angiogenesis with the Selective VEGFR-3 Inhibitor EVT801 in Combination with Cancer Immunotherapy” (Cancer Research Communications, 2022).
pIC50: −log10 of the molar value. Like-named read-outs stand apart in the source and are kept apart here.

How the values were obtained:
VEGFR-3 = VEGFR-3 (Homo sapiens, UniProt P35916); assay: Viability of Ba/F3 cells dependent on VEGFR-3; assay type: cell-based; set-up: fusion proteins consisting of constructs for IL-3 independent survival and either VEGFR-2 or VEGFR-3 kinase domains; expressed in transfected cells; host or cells: Ba/F3 (stably transduced)
VEGFR-3, sequence (P35916 845-1173 limits assumed, species assumed): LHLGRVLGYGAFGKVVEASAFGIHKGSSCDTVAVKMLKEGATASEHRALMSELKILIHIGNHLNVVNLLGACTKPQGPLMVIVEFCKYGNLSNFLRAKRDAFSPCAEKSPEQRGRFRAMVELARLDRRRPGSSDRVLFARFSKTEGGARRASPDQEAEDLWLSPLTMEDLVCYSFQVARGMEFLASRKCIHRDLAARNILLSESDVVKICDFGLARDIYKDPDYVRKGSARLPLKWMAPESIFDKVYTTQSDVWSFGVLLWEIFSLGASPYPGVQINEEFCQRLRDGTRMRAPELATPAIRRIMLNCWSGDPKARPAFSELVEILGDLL
Method: Ba/F3 cells were transduced and selected to stably express fusion proteins consisting of constructs for IL-3 independent survival and either VEGFR-2 or VEGFR-3 kinase domains or without the kinase domain. Proliferation and survival of cell lines was dependent on expression of the transcript. Cells in logarithmic-phase growth were harvested and 5 x 10^3 cells were distributed into each well of a 384-well plate in 50 µL of medium. Then, 50 nL of EVT801, SAR401849 or their vehicle solvent were added to appropriate wells. After 48 h, viability was determined by addition of 10 µL CellTiterGlo reagent (Promega). Luminescence was determined as relative light units (RLU) in counts per second.

CT26 tumors = assay: CT26 ectopic tumor mouse model; assay type: in vivo, mice
Method: BALB/c mice were anesthetized with ketamine (100 mg/kg) combined with xylazine (10 mg/kg) via intraperitoneal injection. A total of 5 × 10^4 CT26 tumor cells were suspended in 200 μL of Matrigel matrix, and then inoculated in the flank of legs. After implantation, mice were randomly separated into two groups. One group received EVT801 by oral gavage and anti-PD-1 by intraperitoneal injection in a volume of 10 mL/kg, whereas the mice in the second group served as control, and were injected with IgG isotype. PD-1 was injected at day 11, day 14, and day 18 after CT26 inoculation. EVT801 was administrated daily by oral route at 30 mg/kg from day 11 until day 21. Tumor volume was measured on days 11, 13, 15, 18, 19 and 21 following tumor cell injection. The selected groups received vehicle or EVT801 orally in a volume of 10 mL/kg. At day 21, 60 mg/kg hypoxyprobe was injected 30 minutes before sacrifice of mice. The tumors were embedded in paraffin for histology studies.

Pharmacokinetics in mice = assay type: in vivo; settings: mouse; for half-life / Cmax / AUC(0-t): plasma; for AUC(0-t): read-out: AUC(0–24)
Method: Plasma samples and tumor homogenates were mixed with the precipitant solution (acetonitrile containing internal standard). The supernatant (180 µL) was transferred in a 96-well plate and 5 µL were injected. EVT801 and its main metabolite were quantified by LC-MS/MS following standard conditions.
Quality control (QC) samples and calibration samples were prepared daily by spiking mouse plasma and tumor homogenates with working solutions prepared from independent weighing. The calibration curve was calculated from calibration levels at 1, 2.5, 5, 10, 25, 50, 100, 200, 500, 1000 and 2000 ng/mL. A variation of ± 20 % versus the nominal concentrations was used as criteria for qualification of samples; at least 75 % of all standards needed to be within this window, and at least 6 concentration values within tis window were used for quantification. The concentrations for QC samples were 5, 50, 150, 450 and 1500 ng/mL. At least 66 % of all QC samples, and at least 50 % of QC samples at a given concentration were within the ± 20 % window. Quadratic regressions were applied, not forced through the origin, and weighted by 1/x (with R^2 > 0.98). The lower limit of quantification for both compounds was set to 1 ng/mL for plasma and to 3 ng/g for tumor samples.

ERK1/2 phosphorylation = assay: VEGF-C-induced ERK1/2 phosphorylation in hLMVEC; assay type: cell-based; settings: Homo sapiens, read-out: IC50, inhibition of VEGF-C-induced ERK1/2 phosphorylation
Method: hLMVECs were plated in 6-well tissue culture plates at a density of 2 x 10^5 cells for 48 h. Cells were then serum deprived for 2 h and either stimulated or mock stimulated for 10 min with VEGFC (500 ng/mL) in the presence or absence of EVT801. Then, cells were lysed and subjected to phospho-MAPK array or to phospho-ERK ELISA according to manufacturer’s instructions.

[1] = system: NCI-H1703 tumor xenografts; assay: NCI-H1703 subcutaneous xenograft tumor mouse model; assay type: in vivo, mice; settings: 30 mg/kg twice per day
Method: A total number of 40 homozygous NOD.CB17 Prkdc^scid/NCrHsd mice were used for the xenograft tumor model. On the day of implantation, NCI-H1703 cells were harvested and suspended at a concentration of 1 × 10^8 cells per mL in an equal mix of Cultrex:RPMI without supplements. A volume of 100 μL was injected into the right hind flank of each animal. Tumor volumes were monitored until mean tumor volume reached 150 mm^3. Then, mice were stratified into four treatment groups of each 10 mice and orally dosed twice per day with either EVT801 30 mg/kg and EVT801 vehicle [Soluplus (BASF)/water/hydroxypropylcellulose SL (Nisso America)], or 30 mk/kg pazopanib and pazopanib vehicle (0.5% Hydroxypropyl methylcellulose trimellitate (HPMCT) + 0.1% Tween-80). A period of 8 hours was observed between the first and second daily dose.

With CCn1c(N)c(-c2ncc[nH]2)c(=O)c2ccc(C#C[C@@](C)(O)COC)nc21 [EVT801] as the compound, how does the pIC50 (VEGFR-3) read?
Its pIC50 is 7.62.

And the “T/C ratio, tumor volume” value (CT26 tumors; BALB/c mice, EVT801 30 mg/kg twice per day, anti-PD-1 twice per week, or both)?
Its value is 55%.

And the “reduction of hypoxyprobe-positive areas compared with vehicle” value (CT26 tumors; end of treatment, not statistically significant)?
Its value is 42%.

And the half-life (Pharmacokinetics in mice; Balb/c, 30 mg/kg, Balb/c mice, 30 mg/kg, read-out: T1/2 in plasma (converted))?
The half-life was 162 min.

And the half-life (Pharmacokinetics in mice; Balb/c, 100 mg/kg, Balb/c mice, 100 mg/kg, read-out: T1/2 in plasma (converted))?
The half-life was 66 min.

And the half-life (Pharmacokinetics in mice; Balb/c, 100 mg/kg, Balb/c with 4T1 tumor, 100 mg/kg for 2 weeks)?
The half-life was 192 min.

And the half-life (Pharmacokinetics in mice; SCID, 10 mg/kg, SCID mice with tumor, 10 mg/kg for 2 weeks, read-out: T1/2 in plasma (converted))?
The half-life was 54 min.

What about the half-life (Pharmacokinetics in mice; SCID, 30 mg/kg, SCID mice with tumor, 30 mg/kg for 2 weeks, read-out: T1/2 in plasma (converted)) of the same compound?
Its half-life is 96 min.

And the Cmax (Pharmacokinetics in mice; oral, 100 mg/kg/day)?
The Cmax was 8940 ng/mL.

And the AUC(0-t) (Pharmacokinetics in mice; oral, 100 mg/kg/day)?
The AUC(0-t) was 22000 ng·h/mL.

And the Cmax (Pharmacokinetics in mice; po, 30 mg/kg twice per day)?
The Cmax was 8390 ng/mL.

And the AUC(0-t) (Pharmacokinetics in mice; po, 30 mg/kg twice per day)?
The AUC(0-t) was 28000 ng·h/mL.

What about the Kp (Pharmacokinetics in mice; Balb/c with 4T1 tumor, 100 mg/kg for 2 weeks, read-out: Tissue to plasma (AUC)) of the same compound?
The Kp was 0.88.

What about the pIC50 (ERK1/2 phosphorylation) of the same compound?
Its pIC50 is 7.89.

What about the “CD31 IHC, tumor vessels” value [1] of the same compound?
Its value is “decreased the number of vessels while increasing the proportion of larger ones”.

And the “decrease of tumor weight compared with vehicle” value ([1]; endpoint)?
The value was 82%.

And the “T/C ratio, tumor growth” value ([1]; oral, vs corresponding vehicle)?
The value was 24%.
